Among the data in article doi:10.1101/2023.03.24.534094v2 (biorxiv, 2023) are ΔTm values, retold here.

Like-named read-outs stand apart in the source and are kept apart here.

Holding throughout (test): biochemical
One assay addresses TAF1 (Homo sapiens, UniProt P21675).
In a further assay the target is PCTAIRE1 (Homo sapiens, UniProt Q00536).
The next assay deals with T1, TTK (Homo sapiens, UniProt P33981).
T1 sequence (P33981 1-857): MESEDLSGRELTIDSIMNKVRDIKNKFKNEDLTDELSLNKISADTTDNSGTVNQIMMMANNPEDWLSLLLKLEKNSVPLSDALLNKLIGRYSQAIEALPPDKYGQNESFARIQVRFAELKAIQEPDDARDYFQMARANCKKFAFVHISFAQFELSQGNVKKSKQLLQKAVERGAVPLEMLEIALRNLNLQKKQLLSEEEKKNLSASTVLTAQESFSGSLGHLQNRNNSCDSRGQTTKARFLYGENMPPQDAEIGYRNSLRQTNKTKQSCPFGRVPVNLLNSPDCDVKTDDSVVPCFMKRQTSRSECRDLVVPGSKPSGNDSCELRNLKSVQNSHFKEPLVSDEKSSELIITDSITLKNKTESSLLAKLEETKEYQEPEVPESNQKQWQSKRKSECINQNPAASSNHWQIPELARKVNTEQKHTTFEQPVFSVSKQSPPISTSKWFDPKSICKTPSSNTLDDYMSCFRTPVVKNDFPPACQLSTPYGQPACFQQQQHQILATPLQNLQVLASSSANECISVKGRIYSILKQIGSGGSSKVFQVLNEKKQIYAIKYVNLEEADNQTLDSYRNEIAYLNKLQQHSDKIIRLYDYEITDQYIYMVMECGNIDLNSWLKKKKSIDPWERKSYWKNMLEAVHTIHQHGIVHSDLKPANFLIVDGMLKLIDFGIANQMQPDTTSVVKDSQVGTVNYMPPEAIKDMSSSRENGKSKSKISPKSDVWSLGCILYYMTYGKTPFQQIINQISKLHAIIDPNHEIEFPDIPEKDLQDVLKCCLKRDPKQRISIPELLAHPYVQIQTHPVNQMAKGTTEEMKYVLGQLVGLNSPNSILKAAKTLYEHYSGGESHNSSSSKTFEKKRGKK

The target in the next assay is T2, PLK4 (Homo sapiens, UniProt O00444).
T2 sequence (O00444 1-970): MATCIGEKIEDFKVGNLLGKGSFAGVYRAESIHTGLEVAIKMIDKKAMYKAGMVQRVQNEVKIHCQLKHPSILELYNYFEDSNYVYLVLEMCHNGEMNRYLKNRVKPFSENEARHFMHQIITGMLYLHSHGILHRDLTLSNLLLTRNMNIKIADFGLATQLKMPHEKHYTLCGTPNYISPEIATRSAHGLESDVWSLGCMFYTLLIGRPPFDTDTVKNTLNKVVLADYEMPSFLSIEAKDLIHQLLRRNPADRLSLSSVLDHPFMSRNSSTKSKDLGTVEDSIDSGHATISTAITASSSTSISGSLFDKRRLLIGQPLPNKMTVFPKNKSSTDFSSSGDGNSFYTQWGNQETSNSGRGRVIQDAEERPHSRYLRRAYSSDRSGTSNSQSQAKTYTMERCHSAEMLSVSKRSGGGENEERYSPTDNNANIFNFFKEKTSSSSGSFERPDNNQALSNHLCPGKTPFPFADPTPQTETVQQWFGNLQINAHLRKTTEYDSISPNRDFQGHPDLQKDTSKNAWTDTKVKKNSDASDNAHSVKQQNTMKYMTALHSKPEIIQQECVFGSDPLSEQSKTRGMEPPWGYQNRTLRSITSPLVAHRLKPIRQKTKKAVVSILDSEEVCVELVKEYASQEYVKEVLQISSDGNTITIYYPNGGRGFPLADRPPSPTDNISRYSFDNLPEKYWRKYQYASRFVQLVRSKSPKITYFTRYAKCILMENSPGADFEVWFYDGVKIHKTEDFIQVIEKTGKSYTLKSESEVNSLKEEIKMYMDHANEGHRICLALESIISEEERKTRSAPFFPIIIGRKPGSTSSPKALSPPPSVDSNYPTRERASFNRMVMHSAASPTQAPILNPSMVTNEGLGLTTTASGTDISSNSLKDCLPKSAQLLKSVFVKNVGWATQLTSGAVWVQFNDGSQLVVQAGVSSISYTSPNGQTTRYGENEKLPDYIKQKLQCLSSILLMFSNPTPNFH

Chain of TAF1 (P21675 whole entry): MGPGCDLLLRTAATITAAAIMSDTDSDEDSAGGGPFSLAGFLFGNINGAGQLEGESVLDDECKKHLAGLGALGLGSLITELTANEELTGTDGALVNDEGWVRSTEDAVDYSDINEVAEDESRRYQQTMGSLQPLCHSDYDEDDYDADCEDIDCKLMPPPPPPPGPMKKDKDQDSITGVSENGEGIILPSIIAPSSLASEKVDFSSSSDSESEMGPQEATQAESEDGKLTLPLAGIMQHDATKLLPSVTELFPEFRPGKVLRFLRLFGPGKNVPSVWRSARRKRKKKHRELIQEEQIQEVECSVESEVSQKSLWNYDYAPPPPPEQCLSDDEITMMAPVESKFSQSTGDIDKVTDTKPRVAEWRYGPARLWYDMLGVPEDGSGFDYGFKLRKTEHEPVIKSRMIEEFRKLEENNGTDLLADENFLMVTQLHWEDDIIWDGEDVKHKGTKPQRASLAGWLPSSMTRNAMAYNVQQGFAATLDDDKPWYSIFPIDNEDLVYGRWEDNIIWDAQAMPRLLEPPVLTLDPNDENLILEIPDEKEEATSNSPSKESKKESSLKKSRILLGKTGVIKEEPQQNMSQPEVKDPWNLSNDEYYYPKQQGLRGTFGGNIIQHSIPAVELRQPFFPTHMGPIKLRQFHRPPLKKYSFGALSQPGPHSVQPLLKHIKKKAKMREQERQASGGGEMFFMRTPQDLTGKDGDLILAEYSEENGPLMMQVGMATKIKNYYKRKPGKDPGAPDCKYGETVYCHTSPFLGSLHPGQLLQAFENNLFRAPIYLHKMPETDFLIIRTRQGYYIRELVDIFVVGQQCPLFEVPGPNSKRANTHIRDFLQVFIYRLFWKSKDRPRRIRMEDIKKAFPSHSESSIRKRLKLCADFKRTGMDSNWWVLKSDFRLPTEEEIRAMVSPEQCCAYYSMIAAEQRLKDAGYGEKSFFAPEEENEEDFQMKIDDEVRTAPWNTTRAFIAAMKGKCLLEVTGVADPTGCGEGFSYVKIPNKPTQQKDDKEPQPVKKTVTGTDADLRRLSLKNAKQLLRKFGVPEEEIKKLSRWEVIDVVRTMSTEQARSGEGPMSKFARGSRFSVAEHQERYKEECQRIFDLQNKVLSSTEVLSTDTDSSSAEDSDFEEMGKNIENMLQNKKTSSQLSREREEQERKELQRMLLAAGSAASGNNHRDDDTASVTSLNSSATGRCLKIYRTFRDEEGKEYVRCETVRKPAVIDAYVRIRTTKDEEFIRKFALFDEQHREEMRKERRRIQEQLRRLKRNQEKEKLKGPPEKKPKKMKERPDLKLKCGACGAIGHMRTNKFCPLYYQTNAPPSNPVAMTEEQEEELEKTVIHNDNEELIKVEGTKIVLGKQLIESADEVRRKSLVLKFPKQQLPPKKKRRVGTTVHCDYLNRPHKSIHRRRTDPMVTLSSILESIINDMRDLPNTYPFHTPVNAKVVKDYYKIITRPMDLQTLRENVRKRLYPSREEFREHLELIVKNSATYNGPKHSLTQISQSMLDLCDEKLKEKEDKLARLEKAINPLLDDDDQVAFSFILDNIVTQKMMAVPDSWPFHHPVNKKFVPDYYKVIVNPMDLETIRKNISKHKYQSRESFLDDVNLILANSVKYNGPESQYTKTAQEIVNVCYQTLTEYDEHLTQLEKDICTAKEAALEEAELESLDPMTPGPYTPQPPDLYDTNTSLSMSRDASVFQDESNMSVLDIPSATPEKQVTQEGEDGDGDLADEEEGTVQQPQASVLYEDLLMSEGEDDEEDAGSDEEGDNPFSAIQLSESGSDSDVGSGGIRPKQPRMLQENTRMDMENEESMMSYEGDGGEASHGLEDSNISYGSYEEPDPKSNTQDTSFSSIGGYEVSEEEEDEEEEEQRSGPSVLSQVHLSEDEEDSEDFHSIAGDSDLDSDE
Chain of PCTAIRE1 (Q00536 whole entry): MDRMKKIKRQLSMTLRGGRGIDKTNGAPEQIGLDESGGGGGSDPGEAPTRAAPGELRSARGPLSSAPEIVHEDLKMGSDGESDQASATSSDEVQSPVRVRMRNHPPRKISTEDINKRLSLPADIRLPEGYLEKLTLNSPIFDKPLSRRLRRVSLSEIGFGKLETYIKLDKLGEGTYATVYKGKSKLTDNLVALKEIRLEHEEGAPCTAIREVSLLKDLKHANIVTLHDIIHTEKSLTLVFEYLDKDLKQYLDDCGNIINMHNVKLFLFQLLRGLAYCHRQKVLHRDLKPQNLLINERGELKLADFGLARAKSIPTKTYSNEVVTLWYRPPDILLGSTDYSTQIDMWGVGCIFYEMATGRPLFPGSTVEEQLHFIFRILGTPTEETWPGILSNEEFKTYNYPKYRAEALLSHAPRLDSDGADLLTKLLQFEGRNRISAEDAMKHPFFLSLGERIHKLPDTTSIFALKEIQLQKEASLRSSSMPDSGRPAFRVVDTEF

For the molecule `CNc1ncc2cc(-c3cc(Cl)ccc3Cl)c(=O)n(CCCCN)c2n1` [compound 8, 8-(4-Aminobutyl)-6-(2,5-dichlorophenyl)-2-(methylamino)pyrido[2,3-d]pyrimidin-7(8H)-one], the ΔTm at 10 µM was -0.7 °C on TAF1 (read-out: dTm 8), 0.7 °C at PCTAIRE1 (read-out: dTm 8), 0.5 °C on TTK (read-out: dTm 8) and 0.5 °C on PLK4 (read-out: dTm 8).
Regarding `CNc1ncc2cc(-c3cc(Br)ccc3Br)c(=O)n(CCCCN)c2n1` [compound 11, 8-(4-Aminobutyl)-6-(2,5-dibromophenyl)-2-(methylamino)pyrido[2,3-d]pyrimidin-7(8H)-one], the ΔTm at 10 µM at TAF1 (read-out: dTm 11) was -0.8 °C; on PCTAIRE1 (read-out: dTm 11), 0.9 °C; on TTK (read-out: dTm 11), 0.2 °C; on PLK4 (read-out: dTm 11) it was 0.6 °C.
As for `CNc1ncc2cc(-c3cc(C(F)(F)F)ccc3Cl)c(=O)n(CCCCN)c2n1` [compound 9, 8-(4-Aminobutyl)-6-(2-chloro-5-(trifluoromethyl)phenyl)-2-(methylamino)pyrido[2,3-d]pyrimidin-7(8H)-one], the ΔTm at 10 µM on TAF1 (read-out: dTm 9) is -0.7 °C; on PCTAIRE1 (read-out: dTm 9), 0.2 °C; on TTK (read-out: dTm 9), -0.5 °C; at PLK4 (read-out: dTm 9), 0.3 °C.
Turning to `CNc1ncc2cc(-c3cc(F)c(-c4cccc(C)n4)cc3F)c(=O)n(CCCCN)c2n1` [compound 12, 8-(4-Aminobutyl)-6-(2,5-difluoro-4-(6-methylpyridin-2-yl)phenyl)-2-(methylamino)pyrido[2,3-d]pyrimidin-7(8H)-one], the ΔTm at 10 µM on TAF1 (read-out: dTm 12) is 0.4 °C; on PCTAIRE1 (read-out: dTm 12) it was 1.3 °C; at TTK (read-out: dTm 12) it was -0.7 °C; on PLK4 (read-out: dTm 12) it was 6.3 °C.
On to `CNc1ncc2cc(-c3cc(Cl)ccc3Br)c(=O)n(CCCCN)c2n1` [compound 10, 8-(4-Aminobutyl)-6-(2-bromo-5-chlorophenyl)-2-(methylamino)pyrido[2,3-d]pyrimidin-7(8H)-one], for which the ΔTm at 10 µM is -0.8 °C on TAF1 (read-out: dTm 10), 0.6 °C at PCTAIRE1 (read-out: dTm 10), 0.5 °C on TTK (read-out: dTm 10) and 0.4 °C at PLK4 (read-out: dTm 10).
